This note sets out measurements from ChEMBL document CHEMBL1201862, “PubChem BioAssay data set” (2004).

SMILES strings stand for the structures.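 Where inhibition never reached the appropriate level, the endpoint shown equals the highest concentration tested. Otherwise, values were interpolated linearly from a five-concentration, 48-hour dose response in 96-well plates. GI50 is the concentration that inhibits growth by half.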 Activity calls are given as the source filed them. Cut-off read from the data, not from the text of the source: active = GI50 up to about 1.1 µM and inactive = higher. Bounds are passed on as bounds.

Some test systems named below: M14; NCI-H23; HOP-62; MDA-MB-435; UACC-62; SW-620; SNB-19; BT-549; SK-MEL-5; CAKI-1; NCI-H522; KM12; TK-10; NCI/ADR-RES; UO-31; HCT-116; NCI-H460; OVCAR-4; HCC 2998; HL-60.
Holding throughout (assay): NCI tumour cell line growth inhibition, 48 h

`O=C(O)CSC1=NCCN1`: the GI50 with M14, with NCI-H23, in the experiment on HOP-62, in the experiment on MDA-MB-435, in the experiment on UACC-62 and with SW-620 was > 100 µM (inactive) throughout. For the same compound, the GI50 with SNB-19, in the experiment with BT-549, in the experiment on SK-MEL-5, in the experiment with CAKI-1, in the experiment with NCI-H522 and in the experiment on KM12 was > 100 µM (inactive) throughout. For the same compound, the GI50 in the experiment with TK-10, in the experiment with NCI/ADR-RES, in the experiment with UO-31, with HCT-116, in the experiment on NCI-H460 and in the experiment on OVCAR-4 was > 100 µM (inactive) each time.
Regarding `N=S(c1ccccc1[N+](=O)[O-])c1ccccc1[N+](=O)[O-]`, the GI50 is 2.69 µM (inactive) with M14; 3.52 µM (inactive) in the experiment with NCI-H23; 3.4 µM (inactive) with HCC 2998; 4.65 µM (inactive) with HOP-62; 3.45 µM (inactive) with UACC-62; 9.33 µM (inactive) in the experiment on SNB-19. Moreover, the GI50 with BT-549 is 1.62 µM (inactive); with SK-MEL-5, 1.78 µM (inactive); in the experiment with HL-60, 0.933 µM (active); in the experiment on CAKI-1, 2.07 µM (inactive); in the experiment with NCI-H522, 0.494 µM (active); in the experiment on KM12, 3.34 µM (inactive). Besides, the GI50 with TK-10 was 3.84 µM (inactive); in the experiment with UO-31, 1.87 µM (inactive); with HCT-116 it was 1.23 µM (inactive); in the experiment with OVCAR-4 it was 0.914 µM (active).
On to `CSC(=N/C=C/c1ccccc1)SC`, for which the GI50 with M14 is > 100 µM (inactive); with NCI-H23 it was > 100 µM (inactive); in the experiment with HOP-62, > 100 µM (inactive); in the experiment on MDA-MB-435, 76.7 µM (inactive); with UACC-62, > 100 µM (inactive); in the experiment on SW-620 it was > 100 µM (inactive). For the same compound, the GI50 was > 100 µM (inactive) with SNB-19; > 100 µM (inactive) in the experiment with BT-549; 49.9 µM (inactive) in the experiment on HL-60; > 100 µM (inactive) in the experiment on CAKI-1; 64 µM (inactive) in the experiment on NCI-H522; > 100 µM (inactive) in the experiment with KM12. For the same compound, the GI50 in the experiment on NCI/ADR-RES, in the experiment with UO-31, with HCT-116, with NCI-H460 and with OVCAR-4 was > 100 µM (inactive) each time.
Take `COc1cccc(C=C2N=C(C)N(n3c(-c4ccccc4)nc4ccccc4c3=O)C2=O)c1`: the GI50 with M14, with NCI-H23, in the experiment with HCC 2998, in the experiment on HOP-62, with MDA-MB-435 and in the experiment on UACC-62 was > 100 µM (inactive) throughout. Further, the GI50 in the experiment with SW-620, with SNB-19, with BT-549, in the experiment on SK-MEL-5, in the experiment with HL-60 and with CAKI-1 was > 100 µM (inactive) throughout. The GI50 with NCI-H522, with KM12, in the experiment on TK-10, with UO-31, with HCT-116 and in the experiment with NCI-H460 was > 100 µM (inactive) throughout.
As to `Cc1cn(CC2=NCC(C)(C)N2)c(=O)[nH]c1=O`, the GI50 with M14, in the experiment with NCI-H23, with HCC 2998, in the experiment with HOP-62, with UACC-62 and in the experiment with SW-620 was > 100 µM (inactive) throughout. The GI50 with SNB-19, in the experiment on BT-549, in the experiment with SK-MEL-5, in the experiment with NCI-H522, in the experiment with TK-10 and with NCI/ADR-RES was > 100 µM (inactive) in each case. Besides, the GI50 with UO-31, with HCT-116 and in the experiment with NCI-H460 was > 100 µM (inactive) throughout.
For the compound `O=C(Cn1c(=O)oc2ccc(C(=O)c3ccc(F)cc3)cc21)c1ccc([N+](=O)[O-])cc1`, the GI50 with M14 was 13 µM (inactive); in the experiment on NCI-H23 it was 45.6 µM (inactive); in the experiment with HCC 2998, 15.9 µM (inactive); in the experiment with HOP-62 it was 54.5 µM (inactive); in the experiment with MDA-MB-435 it was 19.3 µM (inactive); with UACC-62, 34.2 µM (inactive). For the same compound, the GI50 in the experiment on SW-620 was 36.7 µM (inactive); in the experiment with SNB-19 it was 47.1 µM (inactive); with SK-MEL-5, 15.7 µM (inactive); with HL-60, 8.2 µM (inactive); with CAKI-1, 47.6 µM (inactive); in the experiment on NCI-H522, 18.8 µM (inactive). Also, the GI50 in the experiment with KM12 is 22.8 µM (inactive); with TK-10, 36.6 µM (inactive); in the experiment with NCI/ADR-RES it was 33.8 µM (inactive); with UO-31, 19.6 µM (inactive); in the experiment on HCT-116, 29.6 µM (inactive); with NCI-H460, 32.8 µM (inactive). In the experiment with OVCAR-4, the GI50 is 25.5 µM (inactive).
`Oc1nc2nnc(COc3ccc(Cl)cc3Cl)n2nc1Cc1ccccc1`: the GI50 in the experiment with M14 was > 100 µM (inactive); in the experiment with NCI-H23, 43 µM (inactive); in the experiment on HOP-62, 47.2 µM (inactive); with MDA-MB-435, > 100 µM (inactive); in the experiment with SW-620, > 100 µM (inactive); in the experiment on SNB-19, 31.6 µM (inactive). Further, the GI50 is > 100 µM (inactive) in the experiment on BT-549; > 100 µM (inactive) with SK-MEL-5; 49.2 µM (inactive) with HL-60; > 100 µM (inactive) with CAKI-1; > 100 µM (inactive) in the experiment on NCI-H522; > 100 µM (inactive) in the experiment with KM12. Further, the GI50 in the experiment on TK-10 is 34.6 µM (inactive); in the experiment with NCI/ADR-RES, 43.1 µM (inactive); with UO-31, 24.2 µM (inactive); in the experiment on HCT-116, 52.5 µM (inactive); in the experiment with NCI-H460, 84.5 µM (inactive); with OVCAR-4 it was 47.8 µM (inactive).
In the case of `CCOC(=O)Cc1cc(=O)oc2cc(O)ccc12`, the GI50 in the experiment on M14, with NCI-H23, in the experiment with MDA-MB-435, with UACC-62, in the experiment with SW-620 and in the experiment with SNB-19 was > 100 µM (inactive) throughout. Further, the GI50 with BT-549, in the experiment with SK-MEL-5, in the experiment on HL-60, in the experiment with CAKI-1, in the experiment on NCI-H522 and with KM12 was > 100 µM (inactive) in each case. For the same compound, the GI50 in the experiment on TK-10, with NCI/ADR-RES, in the experiment on UO-31, with HCT-116 and in the experiment on NCI-H460 was > 100 µM (inactive) in each case.
As to `CC1(CCC2C=CCC2)CCCNC1=S` (centres undefined), the GI50 in the experiment on M14, with NCI-H23, in the experiment with HCC 2998, in the experiment with HOP-62, in the experiment on MDA-MB-435 and with UACC-62 was > 10 µM (inactive) each time. For the same compound, the GI50 in the experiment on SW-620, in the experiment with SNB-19, in the experiment with BT-549, in the experiment on SK-MEL-5, in the experiment on HL-60 and in the experiment on KM12 was > 10 µM (inactive) each time. In addition, the GI50 in the experiment with TK-10, with UO-31, in the experiment with HCT-116 and in the experiment on NCI-H460 was > 10 µM (inactive) each time.
